Test results as given in ChEMBL document CHEMBL1150352, “Novel substituted aminoalkylguanidines as potential antihyperglycemic and food intake-reducing agents” (2008).

Assays:
Type in all cases: functional
Settings in all cases: route subcutaneous
Mus musculus [1] = test: Antihyperglycemic activity in C57BL/KsJ db/db mouse at 13 mg/kg, sc administered twice a day for 4 days once on day 5 by insulin suppression test relative to control
Mus musculus [2] = test: Antihyperglycemic activity in C57BL/KsJ db/db mouse at 130 mg/kg, sc administered twice a day for 4 days once on day 5 by insulin suppression test relative to control
Mus musculus [3] = test: Antihyperglycemic activity in C57BL/KsJ db/db mouse at 25 mg/kg, sc administered twice a day for 4 days and once on day 5 after 60 mins of load injection by insulin suppression test relative to control
Mus musculus [4] = test: Antihyperglycemic activity in C57BL/KsJ db/db mouse assessed as reduction in water consumption at 25 mg/kg, sc administered twice a day for 4 days and once on day 5 relative to control; parameters: scale not given: the % may be the effect or the level left
Mus musculus [5] = test: Antihyperglycemic activity in C57BL/KsJ db/db mouse assessed as reduction in food intake at 25 mg/kg, sc administered twice a day for 4 days and once on day 5 relative to control; parameters: scale not given: the % may be the effect or the level left
Mus musculus [6] = test: Antihyperglycemic activity in C57BL/KsJ db/db mouse at 25 mg/kg, sc administered twice a day for 4 days once on day 5 immediately after load injection by insulin suppression test relative to control
Mus musculus [7] = test: Antihyperglycemic activity in C57BL/KsJ db/db mouse at 5 mg/kg, sc administered twice a day for 4 days once on day 5 after 60 mins of load injection by insulin suppression test relative to control
Mus musculus [8] = test: Antihyperglycemic activity in C57BL/KsJ db/db mouse at 5 mg/kg, sc administered twice a day for 4 days once on day 5 immediately after load injection by insulin suppression test relative to control

Structure (SMILES)	Activity (Mus musculus [1])	Activity (Mus musculus [2])	Activity (Mus musculus [3])	Activity (Mus musculus [4])	Activity (Mus musculus [5])	Activity (Mus musculus [6])	Activity (Mus musculus [7])	Activity (Mus musculus [8])
CN(C)C(=N)NC(=N)N [METFORMIN]	-11%	-22%	–	–	–	–	–	–
N=C(NCCCCCCBr)NCC1CC1	–	–	-20%	-30%	-22%	-12%	–	–
CC(C)=CCNC(=N)NCCCCN	–	–	-11%	-53%	-37%	-13%	–	–
N=C(NCC1CCC(CN)CC1)NCC1CC1 (configuration not stated)	–	–	-43%	-59%	-40%	-29%	–	–
CC(C)=CCNC(=N)NCCCCCCN	–	–	-13%	-53%	-19%	-31%	–	–
CN(CCOc1ccc(CC2SC(=O)NC2=O)cc1)c1ccccn1 (configuration not stated) [ROSIGLITAZONE]	–	–	–	–	–	–	-39%	-29%
N=C(NCCCCN)NCCCc1ccccc1	–	–	-8%	-44%	-33%	12%	–	–
NCCCCCCN/C(=N/c1ccc(F)cc1)N1CCCCC1	–	–	-8%	-41%	-22%	-15%	–	–
N=C(NCCCCCCN)NCC1CC1	–	–	-18%	-45%	-19%	-42%	–	–
CC(C)=CCNC(=N)NCC1CCC(CN)CC1 (configuration not stated)	–	–	-29%	-29%	-21%	-8%	–	–
CC(C)=CCNC(=N)N[C@H]1CC[C@H](N)CC1	–	–	-22%	-44%	-27%	-14%	–	–
CC(C)=CCNC(=N)NCCCCCN	–	–	-13%	-57%	-41%	-15%	–	–
CC(C)CCNC(=N)NCCCCCCN	–	–	-24%	-24%	-14%	-17%	–	–
CN1CCN(/C(=N\c2ccc(F)cc2)NCCCCCCN)CC1	–	–	-12%	-35%	-14%	-21%	–	–
